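Interpolation was linear, between the two tested concentrations surrounding the appropriate level; five concentrations were tested over 48 hours in 96-well plates. Here, GI50 denotes the concentration required for 50% inhibition of growth. TGI marks complete inhibition of growth.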

Test systems include ACHN renal; HCT-116 colon; MDA-MB-435; NCI-H522 lung; OVCAR-5 ovarian; SF-539 CNS; SNB-19 CNS; SR leukemia; UACC-257 melanoma; UACC-62 melanoma.
Common to all, as to experiment: NCI-60 cell line screen, 48 h

For the molecule `O=C(Nc1ccc(Br)cc1)Nc1n[nH]c2ccccc12`, the GI50 with ACHN renal is 23.3 µM; with HCT-116 colon, 33.8 µM; in the assay on MDA-MB-435, greater than 100 µM; in the assay on NCI-H522 lung, 55 µM; in the assay with OVCAR-5 ovarian, greater than 100 µM; in the assay on SF-539 CNS it was greater than 70.9 µM. Moreover, the GI50 with SNB-19 CNS was greater than 100 µM; in the assay with SR leukemia it was 4.78 µM; in the assay with UACC-257 melanoma, greater than 100 µM; with UACC-62 melanoma it was greater than 100 µM. Further, the TGI with ACHN renal, with HCT-116 colon, with MDA-MB-435, with NCI-H522 lung, in the assay with OVCAR-5 ovarian and with SF-539 CNS was greater than 100 µM throughout. The TGI in the assay with SNB-19 CNS, in the assay on SR leukemia, in the assay with UACC-257 melanoma and in the assay with UACC-62 melanoma was greater than 100 µM throughout.
Take `CC(=O)/C=C/C1=C(c2cc3ccccc3s2)c2ccccc2CC1`: the GI50 is 19.4 µM in the assay with ACHN renal; 20.7 µM with HCT-116 colon; 23 µM with MDA-MB-435; 26 µM in the assay with NCI-H522 lung; 27 µM in the assay on OVCAR-5 ovarian; 27.2 µM in the assay with SF-539 CNS. Also, the GI50 in the assay with SNB-19 CNS is 50.7 µM; with SR leukemia, 8.59 µM; with UACC-257 melanoma it was 24.4 µM; in the assay on UACC-62 melanoma, 16.7 µM. Further, the TGI in the assay with ACHN renal came out at 45.5 µM; in the assay with HCT-116 colon it was 65.1 µM; with MDA-MB-435 it was 52.5 µM; with NCI-H522 lung, 72.2 µM; in the assay with OVCAR-5 ovarian it was 67.9 µM; with SF-539 CNS, 64.7 µM. For the same molecule, the TGI in the assay with SNB-19 CNS was greater than 100 µM; with SR leukemia, greater than 100 µM; in the assay on UACC-257 melanoma, 59.7 µM; in the assay on UACC-62 melanoma it was 34.2 µM.
For `O=C1OC(c2ccc(O)c(-c3ccccc3)c2)(c2ccc(O)c(-c3ccccc3)c2)c2c(Cl)c(Cl)c(Cl)c(Cl)c21`, the TGI in the assay with ACHN renal, in the assay on HCT-116 colon, in the assay with MDA-MB-435, in the assay on NCI-H522 lung, with OVCAR-5 ovarian and in the assay on SF-539 CNS was greater than 100 µM in each case. Moreover, the TGI in the assay with SNB-19 CNS, in the assay with SR leukemia, with UACC-257 melanoma and in the assay on UACC-62 melanoma was greater than 100 µM in each case.
Consider `COc1cccc(/C=N\Nc2ccc([N+](=O)[O-])cn2)c1O`, for which the GI50 was 2.33 µM in the assay with ACHN renal; 3.04 µM with HCT-116 colon; 5.23 µM in the assay with MDA-MB-435; 3.34 µM in the assay on NCI-H522 lung; 5.71 µM in the assay on OVCAR-5 ovarian; 2.93 µM in the assay on SF-539 CNS. In addition, the GI50 with SNB-19 CNS is 3.13 µM; with SR leukemia it was 3.03 µM; with UACC-257 melanoma it was 3.19 µM; with UACC-62 melanoma it was 2.47 µM. Further, the TGI with ACHN renal is 7.61 µM; with HCT-116 colon, 15.2 µM; in the assay on MDA-MB-435, greater than 100 µM; in the assay on NCI-H522 lung it was 18.4 µM; with OVCAR-5 ovarian it was 82.7 µM; in the assay with SF-539 CNS, 8.65 µM. Besides, the TGI with SNB-19 CNS was 27.8 µM; in the assay on SR leukemia, greater than 100 µM; in the assay with UACC-257 melanoma, 20.6 µM; in the assay on UACC-62 melanoma it was 8.9 µM.
For the molecule `O=C(O)C1C2CC3C(OC(=O)C31)C2Br` (stereo not given), the TGI in the assay on ACHN renal, in the assay with HCT-116 colon, in the assay on MDA-MB-435, in the assay with NCI-H522 lung, in the assay on OVCAR-5 ovarian and in the assay with SF-539 CNS was greater than 100 µM each time. For the same molecule, the TGI is greater than 100 µM in the assay with SNB-19 CNS, 26.2 µM with SR leukemia, greater than 100 µM in the assay with UACC-257 melanoma and greater than 100 µM in the assay with UACC-62 melanoma.
With `COCCOC(=O)C1=C(C)NC2=C(C(=O)CC(c3ccccc3OC)C2)C1c1cccc(O)c1` (stereo not given), the GI50 is 19.1 µM in the assay on ACHN renal; 12.8 µM in the assay with HCT-116 colon; 5.31 µM with MDA-MB-435; 6.47 µM in the assay with NCI-H522 lung; 23.3 µM with OVCAR-5 ovarian; 11.9 µM with SF-539 CNS. In addition, the GI50 with SNB-19 CNS is 16 µM; in the assay on SR leukemia, 8.76 µM; with UACC-257 melanoma, 8.8 µM; with UACC-62 melanoma, 4.51 µM. The TGI in the assay on ACHN renal was 71.2 µM; in the assay on HCT-116 colon, 35.4 µM; in the assay with MDA-MB-435 it was 25.4 µM; in the assay on NCI-H522 lung, 33.6 µM; in the assay with OVCAR-5 ovarian it was greater than 100 µM; with SF-539 CNS, 43.4 µM. Further, the TGI with SNB-19 CNS is greater than 100 µM; with SR leukemia it was greater than 59.6 µM; in the assay on UACC-257 melanoma it was 61.1 µM; with UACC-62 melanoma, 29.3 µM.
As for `O=C1Nc2ccccc2C1Cc1ccccc1` (stereo not given), the TGI in the assay on ACHN renal, in the assay with HCT-116 colon, in the assay with MDA-MB-435, with NCI-H522 lung, with OVCAR-5 ovarian and in the assay on SF-539 CNS was greater than 100 µM in each case. The TGI in the assay on SNB-19 CNS, in the assay with SR leukemia, in the assay with UACC-257 melanoma and in the assay on UACC-62 melanoma was greater than 100 µM throughout.
Turning to `O=C1C=C(Nc2ccccc2C(=O)CC(=O)C(=O)Nc2cccc(C(F)(F)F)c2)c2ccccc2C1=O`, the TGI in the assay with ACHN renal is greater than 100 µM; in the assay on HCT-116 colon it was 74.3 µM; in the assay on MDA-MB-435, 20.9 µM; in the assay on NCI-H522 lung, 79.2 µM; with OVCAR-5 ovarian, greater than 100 µM; in the assay on SF-539 CNS, 49 µM. Further, the TGI with SNB-19 CNS was greater than 100 µM; in the assay on SR leukemia, greater than 94.7 µM; in the assay with UACC-257 melanoma, 31.8 µM; in the assay with UACC-62 melanoma it was 32.3 µM.

The record behind these values is PubChem BioAssay (NCI).
